Publication PMC8156206, “Novel N,N′-Disubstituted Selenoureas as Potential Antioxidant and Cytotoxic Agents” (Antioxidants, 2021)
Read-outs that look alike come from different tables or passages of the source.

Key:
[1] = tested on: BEAS-2B cells (lung non-malignant derived cell line); assay: MTT cell viability assay, BEAS-2B; format: cell-based; details: Homo sapiens, 48 h, mean ± SD
Experimental: (§1) Cell lines were purchased from the American Type Culture Collection (ATCC). MCF-7, HTB-54, BEAS-2B and 184B5 cell lines were grown in RPMI 1640 medium (Gibco) supplemented with 10% fetal bovine serum (FBS; Gibco), 100 units/mL penicillin, and […] streptomycin (Gibco). HT-29 and HCT-116 cell lines was cultured in McCoy’s 5A (Gibco), 10% FBS, 100 units/mL penicillin, and 100 μg/mL streptomycin. Cells were maintained at 37 °C and 5% CO2. Culture medium was replaced every three days.
(§2) A cell viability assay of each compound was carried out using an MTT assay. Each selenourea was dissolved in dimethyl sulfoxide (DMSO) at a concentration of 0.01 M. Serial dilutions were prepared with non-supplemented culture medium. Cytotoxic activity of each selenourea was determined at two different concentrations (10 and 50 µM) in MCF-7, HTB-54, and HT-29 cells. In addition, selected compounds were tested at seven different concentrations (0.1, 1, 5, 10, 25, 50, 100 µM) on MCF-7, HT-29, HCT-116, HTB-54, 184B5, and BEAS-2B cells. The number of passages before defrosting the cells was 3, and they were kept under culture up to a maximum of 15.
(§3) Briefly, 1 × 10^4 cells/well were grown in 96-well plates for 24 h. Then, these cells were incubated with either DMSO (negative control) at 5 µM or a different concentration of each tested selenourea for 48 h. A volume of 20 µL of MTT was added 150 min before the termination point to measure cellular viability. After this time, culture medium was removed. The resultant formazan crystals were dissolved in 50 µL of DMSO, and absorbance was measured at 570 nm. Results are expressed as IC50, the half maximal inhibitory concentration. This value was calculated using GraphPad Prism 7 software by nonlinear curve fitting. Furthermore, the selectivity index (SI) was calculated as the ratio of the IC50 values determined for the non-malignant and the tumoral cells (IC50 (184B5)/IC50 (MCF-7) or (IC50 (BEAS-2B)/IC50 (HTB-54). Data were obtained from at least three independent experiments performed in triplicates.

[2] = DPPH radical scavenging assay
Experimental: (§4) From all the methods available for the prediction of the antioxidant properties, DPPH^● and ABTS^●+ assays were chosen according to their simplicity, accessibility, and effectiveness for a fast prediction of radical scavenging activities in vitro. The radical scavenging capacity of the novel selenoureas was determined by DPPH^● and ABTS^●^+ assays. Measurements were recorded on a BioTeck PowerWave XS spectrophotometer (BioTeck Instruments, Winooski (VT), USA) and the data were collected using KCJunior software (BioTeck Instruments, Winooski (VT), USA).
A DPPH assay was performed, as described by Svinyarov. Stock solutions of 1 mg/mL were initially prepared for each selenourea in methanol and this solution was used for the preparation of the different concentrations employed in the assay. Ascorbic acid (Asc) was used as positive control due to the literature reports that this derivative is a potent antioxidant and radical scavenger. A volume of 100 µL from a previously prepared stock solution (preserved in dark and daily prepared) of DPPH (100 µM) in methanol were added to 100 µL of the methanolic selenoureas solutions prepared previously, and the antioxidant activity these compounds was assessed by its ability to decolorize DPPH● radical (purple color in methanol) to DPPHH (colorless). Thus, radical scavenging activity was estimated by the decrease in the absorbance at 517 nm. Determinations were recorded at different time-points. All the measurements were carried out in triplicate. Results are expressed as the percentage of the radicals scavenged, calculated using the following formula:(1) % DPPH radical scavenging=Acontrol − Asample/Acontrol × 100 where Acontrol refers to the absorbance of the negative control and Asample refers to the absorbance of the tested compounds. Results are expressed as percentage of DPPH radical scavenging ± SD.
In order to determine the radical scavenging of these newly synthesized selenourea derivatives, the DPPH assay was firstly employed. Measurements were performed at four different concentrations ranging from 0.0003 to 0.03 mg/mL, and collected at time-points between 0 min and 120 min (Figures S81–S100). Results are presented as the percentage of inhibition for DPPH radical scavenging activity.

[3] = tested on: MCF-7 cells (breast adenocarcinoma); assay: MTT cell viability assay, MCF-7; format: cell-based, human; details: for IC50 / viability at 10 µM / viability at 50 µM: Homo sapiens; for IC50: read-out: IC50 MCF-7 (breast); for viability at 10 µM / viability at 50 µM: read-out: cell viability, percentage of live cells; for SI (selectivity index) breast: IC50 (184B5)/IC50 (MCF-7)
Experimental: as §1, §2, §3
(§5) The cytotoxic effects of synthesized compounds were evaluated against three human cancer cell lines: breast adenocarcinoma (MCF-7), lung adenocarcinoma (HTB-54), and colon carcinoma (HT-29), using a 3-[4,5-dimethylthiazol-2-yl]-2,5-diphenyltetrazolium bromide (MTT) assay. Firstly, the compounds were screened at two doses (50 and 10 µM) and after 48 h of treatment. The results are summarized in Figure 4 and are presented as percentages of growth inhibition related to control.

[4] = tested on: HT-29 cells (colon carcinoma); assay: MTT cell viability assay, HT-29; format: cell-based; details: Homo sapiens; for IC50: read-out: IC50 HT-29 (colon); for viability at 10 µM / viability at 50 µM: read-out: cell viability, percentage of live cells
Experimental: as §1, §2, §3, §5

[5] = tested on: HTB-54 cells (lung adenocarcinoma); assay: MTT cell viability assay, HTB-54; format: cell-based, human; details: for IC50 / viability at 10 µM / viability at 50 µM: Homo sapiens; for IC50: read-out: IC50 HTB-54 (lung); for viability at 10 µM / viability at 50 µM: read-out: cell viability, percentage of live cells; for SI (selectivity index) lung: IC50 (BEAS-2B)/IC50 (HTB-54)
Experimental: as §1, §2, §3, §5

[6] = Stability of the selenoureas before screening; format: physicochemical
[7] = tested on: HCT-116 cells (colon); assay: MTT cell viability assay, HCT-116; format: cell-based; details: Homo sapiens, read-out: IC50 HCT-116 (colon)
Experimental: as §1, §2, §3

[8] = ABTS radical scavenging assay; details: 0.003 mg/mL, 60 min
Experimental: as §4
As well as DPPH, ABTS radical scavenging assay is a colorimetric method. ABTS (2,2′-azino-bis(3-ethylbenzothiazoline-6-sulfonic acid) was dissolved in deionized water at 1 mg/mL and oxidized to ABTS^●+ with potassium persulfate (2.45 mM final concentration). This oxidation process is not instantaneous, and the reaction mixture was kept in the dark overnight at room temperature. After ABTS^●+ radical was generated, the ABTS^●+ solution was diluted with 50% ethanol until an absorbance of 0.70 ± 0.02 at 734 nm for measurements was achieved. Stock solution of 1 mg/mL in absolute ethanol was prepared for each selenourea, and different dilutions were prepared to reach the final concentration, when 20 µL of this solution were added to 180 µL of the diluted ABTS^●+. The absorbance at 734 nm was recorded using 50% ethanol as blank. Trolox and Asc were used as positive controls. All determinations were carried out in triplicate. Same time intervals as in the DPPH assay were also measured. The ability to scavenge ABTS^●+ was calculated using the following formula:(2) % ABTS radical scavenging=Acontrol − Asample/Acontrol × 100 where Acontrol refers to the absorbance of the negative control and Asample refers to the absorbance of the tested compounds. The results are expressed as percentage of ABTS radical scavenging ± SD.
In order to confirm the antioxidant activity of the selenoureas, we performed an additional ABTS (2,2′-azino-bis(3-ethylbenzothiazoline-6-sulfonic acid) radical scavenging assay. Following the results obtained in the DPPH assay, this experiment was performed at 0.03 and 0.003 mg/mL. Measurements were recorded after 0′, 6′ and 60′ of incubation with ABTS. For comparison purposes, Trolox and ascorbic acid were used as references. The remarkable results are summarized in Figure 3.

[9] = tested on: 184B5 cells (breast non-malignant derived cell line); assay: MTT cell viability assay, 184B5; format: cell-based; details: Homo sapiens, read-out: IC50 184B5 (breast, non-malignant)
Experimental: as §1, §2, §3

[10] = tested on: MCF-7, HTB-54, HT-29 and HCT-116 cancer cell lines; assay: MTT assay, panel of four cancer cell lines; format: cell-based; details: MCF-7, HTB-54, HT-29, HCT-116, read-out: IC50 against the four cancer cell lines tested (all the cell lines)
Experimental: as §2, §3
Those derivatives that reduced the growth of the cell lines below 50% at 10 µM in at least one cell line were selected for being evaluated at five concentrations between […] and 100 µM. Ten compounds (1d, 1e, 2a, 2d, 3a, 6a, 6b, 6c, 6d, and 6e) passed this threshold and four of them (1e, 6c, 6d and 6e) in all three cancer cell lines. The data are expressed as IC50 (mean ± SD) in a panel of four cancer cell lines (MCF-7, HTB-54, HT-29, and HCT-116), and are shown in Table 1. Cisplatin was used as a standard drug. […] Additionally, reported IC50 values of a well-known antitumor selenocompound, i.e., sodium selenite (Na2SeO3), were used as reference for comparision with the selected selenoureas.

Clc1ccc(NC(=[Se])NCc2nccs2)cc1 [Compound 2d]
IC50 [1]: 5.22 ± 0.07 µM | DPPH radical scavenging capacity compared with ascorbic acid ([2]; at lower concentrations): greater radical scavenging capacity than ascorbic acid | IC50 ([3]; MCF7, 48 h, MTT, mean ± SD): > 10 µM | viability at 10 µM ([3]; MCF7, MCF-7, 10 µM, 48 h, MTT): 59.7% | viability at 50 µM ([3]; MCF7, MCF-7, 50 µM, 48 h, MTT): 35% | IC50 ([4]; HT-29, 48 h, MTT, mean ± SD): > 10 µM | viability at 10 µM ([4]; HT-29, 10 µM, 48 h, MTT): 77.2% | viability at 50 µM ([4]; HT-29, 50 µM, 48 h, MTT): 67.1% | IC50 ([5]; HTB-54, 48 h, MTT, mean ± SD): 8.65 ± 0.29 µM | viability at 10 µM ([5]; HTB-54, 10 µM, 48 h, MTT): 45.8% | viability at 50 µM ([5]; HTB-54, 50 µM, 48 h, MTT): 37.2% | SI (selectivity index) lung [5]: 0.60 | melting point: 165 °C

CCCCNC(=[Se])Nc1ccccc1 [Compound 4a]
stability of the compound before screening [6]: decomposed before screening | melting point: 69 °C

CCCCNC(=[Se])Nc1ccc(C)cc1 [Compound 4b]
stability of the compound before screening [6]: decomposed before screening | melting point: 46 °C

CCCCNC(=[Se])Nc1ccc(OC)cc1 [Compound 4c]
stability of the compound before screening [6]: decomposed before screening | melting point: 89 °C

CCCCCCNC(=[Se])Nc1ccccc1 [Compound 5a]
stability of the compound before screening [6]: decomposed before screening | melting point: 59 °C

CCCCCCNC(=[Se])Nc1ccc(C)cc1 [Compound 5b]
stability of the compound before screening [6]: decomposed before screening | melting point: 88 °C

[Se]=C(Nc1ccccc1)NC12CC3CC(CC(C3)C1)C2 [Compound 6a, N´-adamantyl-N-(phenyl)selenourea]
IC50 ([7]; HCT-116, 48 h): 5.69 ± 0.71 µM | ABTS radical scavenging activity compared with Trolox [8]: significant lower radical scavenging activity than Trolox | IC50 ([3]; MCF7, 48 h): 9.88 ± 1.46 µM | viability at 10 µM ([3]; MCF7, 48 h): 54.3% | viability at 50 µM ([3]; MCF7, 48 h): 18.2% | SI (selectivity index) breast [3]: 2.25 | IC50 ([4]; HT-29, 48 h): 5.03 ± 3.06 µM | viability at 10 µM ([4]; HT-29, 48 h): 43% | viability at 50 µM ([4]; HT-29, 48 h): 33.9% | IC50 ([9]; 184B5, 48 h): 22.2 ± 4.07 µM | IC50 ([5]; HTB-54, 48 h): > 10 µM | viability at 10 µM ([5]; HTB-54, 48 h): 51.9% | viability at 50 µM ([5]; HTB-54, 48 h): 15.7% | melting point: 161 °C

N#Cc1ccc(NC(=[Se])NC23CC4CC(CC(C4)C2)C3)cc1 [Compound 6e, N´-Adamanty-N-(4-cyanophenyl)selenourea]
IC50 [1]: 2.36 ± 0.39 µM | IC50 [10]: < 10 µM | IC50 ([7]; HCT-116, 48 h, MTT, mean ± SD): 5.43 ± 0.86 µM | DPPH radical scavenging kinetics ([2]; 0.03 mg/mL, time-point 0 min): reaching the maximum activity at time-point 0′ | IC50 ([3]; MCF7, 48 h, MTT, mean ± SD): 5.47 ± 3.91 µM | viability at 10 µM ([3]; MCF7, MCF-7, 10 µM, 48 h, MTT): 44.4% | viability at 50 µM ([3]; MCF7, MCF-7, 50 µM, 48 h, MTT): 5.7% | SI (selectivity index) breast [3]: 1.41 | IC50 ([4]; HT-29, 48 h, MTT, mean ± SD): 4.18 ± 0.46 µM | viability at 10 µM ([4]; HT-29, 10 µM, 48 h, MTT): 18.9% | viability at 50 µM ([4]; HT-29, 50 µM, 48 h, MTT): 3.6% | IC50 ([9]; 184B5, 48 h, MTT, mean ± SD): 7.69 ± 0.31 µM | IC50 ([5]; HTB-54, 48 h, MTT, mean ± SD): 6.09 ± 0.75 µM | viability at 10 µM ([5]; HTB-54, 10 µM, 48 h, MTT): 34% | viability at 50 µM ([5]; HTB-54, 50 µM, 48 h, MTT): 0.3% | SI (selectivity index) lung [5]: 0.39
